Read-outs that look alike come from different tables or passages of the source.
How the values were obtained:
[1] = system: P. berghei liver stage (PbLuc); assay: P. berghei luciferase liver stage (PbLuc) assay in HepG2-A16-CD81 hepatocytes; assay type: cell-based, Plasmodium berghei; conditions: Plasmodium berghei; for Emax: 12pt dose response, maximum inhibition
[2] = HepG2 cytotoxicity screening (CellTiter-Glo); conditions: human, uninfected HepG2-A16-CD81 (EGFP) hepatocytes
[3] = system: HepG2-A16-CD81 hepatocytes; assay: HepG2 cytotoxicity screening (CellTiter-Glo); conditions: for HepG2 cytotoxicity 12pt dose response: Maximum inhibition (%): 12pt dose response
[4] = target: recombinant firefly luciferase (Photinus pyralis, UniProt P08659); assay: biochemical; conditions: dose response
recombinant firefly luciferase, sequence (P08659 whole entry): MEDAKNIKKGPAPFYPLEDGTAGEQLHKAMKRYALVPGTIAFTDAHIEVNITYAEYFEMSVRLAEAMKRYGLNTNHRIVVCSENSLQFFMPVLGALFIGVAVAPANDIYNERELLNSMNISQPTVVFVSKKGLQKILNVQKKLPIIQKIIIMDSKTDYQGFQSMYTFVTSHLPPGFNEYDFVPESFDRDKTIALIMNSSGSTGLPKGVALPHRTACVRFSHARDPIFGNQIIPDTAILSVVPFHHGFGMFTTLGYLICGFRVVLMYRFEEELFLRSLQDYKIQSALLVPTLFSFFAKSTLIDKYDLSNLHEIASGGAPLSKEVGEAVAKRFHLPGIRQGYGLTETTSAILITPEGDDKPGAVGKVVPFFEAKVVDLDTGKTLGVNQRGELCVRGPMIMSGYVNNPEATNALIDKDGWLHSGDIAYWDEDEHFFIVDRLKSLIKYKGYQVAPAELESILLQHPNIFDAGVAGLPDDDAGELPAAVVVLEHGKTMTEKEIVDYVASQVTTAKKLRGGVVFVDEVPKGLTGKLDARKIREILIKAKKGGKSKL

[5] = HepG2-A16-CD81, 12pt dose response, read-out: PbLuc 12pt dose response: IC50

SMILES | IC50 [1, 5] [µM] | Emax ([1]; HepG2-A16-CD81, 48 h) [%] | IC50 [2] [µM] | inhibition at 2 µM [2] [%] | HepG2 cytotoxicity 12pt dose response: Maximum inhibition (%) [3] [%] | also measured
COc1cccc(CN2CCC(CO)(Cc3ccc(Cl)cc3)CC2)c1O [UCSD-0828601] | 4.59 | 95 | 12.2 | 2.59 | 82.8 | –
Cc1ccc2cc(C3(O)CCN(C(=O)CSC(C)C)CC3)ccc2n1 [UCSD-0827397] | 16.9 | – | > 50 | 33.3 | 39.9 | –
CN1CCCC(CCC(=O)N2CCc3sc(C(=O)N(C)C)cc3C2)C1 (stereo not drawn) [UCSD-0833754] | > 50 | 38.7 | > 50 | -1.19 | 3.22 | –
CCc1nc(CN2CCCN(c3ncnc4ccsc34)CC2)no1 [DDD01071387] | – | – | – | – | – | IC50 ([1]; HepG2-A16-CD81, 48 h, 48 h liver stage, HepG2-A16-CD81, read-out: Pbluc (EEF) IC50): 9.87 µM; IC50 ([3]; HepG2-A16-CD81, read-out: HepG2 tox IC50): > 50 µM
CCc1ccccc1OC1CN(C(=O)c2ccnc(OC)c2)C1 [UCSD-0824378] | 16.6 | 80.5 | > 50 | 8.15 | 46.8 | –
Cc1cccc(NC(=O)c2[nH]nc(C(C)C)c2Br)n1 [UCSD-0842406] | 0.0268 | 101 | > 50 | 17.4 | 40.5 | –
O=C(O)c1cccnc1N1CCN(Cc2ccc(F)cc2)C(CCO)C1 (stereo not drawn) [UCSD-0826099] | > 50 | 46.3 | > 50 | 9.42 | 4.04 | –
COc1ccccc1C1CCN(c2ccc3cc[nH]c3n2)CC1 [UCSD-0836069] | 3.52 | 93.5 | 31.8 | 5.11 | 60.6 | –
NCC1CCN(C2CCN(c3ccc(-c4ccco4)cc3)CC2)C1 (stereo not drawn) [UCSD-0833151] | 4.7 | 99.4 | 14.1 | 3.93 | – | –
CCc1nc(CN2CCCN(c3ncnc4ccsc34)CC2)no1 [UCSD-0620395] | 9.87 | – | > 50 | 12.5 | 49.7 | –
NC(=O)CCn1cc(CNCc2csc(N)n2)c2ccccc21 [UCSD-0835992] | > 50 | 17.4 | > 50 | 9.68 | 10.2 | –
COc1ccc(CN2CCC=C(C(C)NC(C)=O)C2)cc1 (stereo not drawn) [UCSD-0826536] | – | – | – | 6.35 | – | –
CCn1ccnc1CNCC(c1ccc(C)s1)N1CCOCC1 (stereo not drawn) [UCSD-0810145] | 38.3 | 88.9 | 46.2 | 16.3 | 56.3 | –
Cc1cccc(NCc2ncc(C(C)(C)C)o2)c1 [UCSD-0816980] | 16.6 | 73.4 | > 50 | 14.1 | 11.5 | –
O=C1NCCN1C1CCN(Cc2nc(-c3ccccc3)no2)CC1 [UCSD-0839728] | – | – | – | -6.19 | – | –
Cc1nc(NCc2noc(C3CCCO3)n2)c2sccc2n1 (stereo not drawn) [UCSD-0827338] | – | – | – | 37.4 | – | –
Cc1n[nH]c(CN2CCN(c3ncnc4scc(C)c34)CC2)c1Cl [UCSD-0836325] | 4.49 | 96 | > 16.6 | 27.1 | 66.1 | –
CCN1C[C@@H]2[C@@H](OC)CCN(C(=O)c3cc(C)nn3CC)[C@@H]2C1 [UCSD-0791117] | – | – | – | -3.65 | – | –
Cc1csc2ncnc(N3CCC(Cn4cc(C(C)(C)O)nn4)CC3)c12 [UCSD-0835726] | 4.82 | 82.1 | > 25 | 4.96 | – | Emax ([4]; maximum inhibition, read-out: rLuc inhibition dose response: Maximum inhibition (%)): 5.67%; IC50 ([4]; read-out: rLuc inhibition dose response: IC50): > 25 µM

SMILES | IC50 [1, 5] [µM] | Emax ([1]; HepG2-A16-CD81, 48 h) [%] | IC50 [2] [µM] | inhibition at 2 µM [2] [%] | HepG2 cytotoxicity 12pt dose response: Maximum inhibition (%) [3] [%] | also measured
COc1cc(Oc2ncccc2C(F)(F)F)ccc1CN1CCCC1 [UCSD-0833465] | – | – | – | 1.7 | – | –
Cc1nc(C)c(CN2CCOC[C@H](Oc3ccccc3)C2)s1 [UCSD-0784893] | – | – | – | 25.2 | – | –
C[C@H](c1ccc(F)cc1)n1c(C2CCN(C)CC2)n[nH]c1=O [UCSD-0830237] | 3.28 | 86.3 | > 50 | 3.06 | 8.15 | –
COc1ccc(F)c(CN2CCCC(O)(CNCC(C)(C)C)C2=O)c1 (stereo not drawn) [UCSD-0830878] | 44.7 | 86.4 | > 50 | 5.34 | -11.6 | –
Cc1ccc(CN2CCCC3(CCN(Cc4ccoc4)CC3)C2)cc1 [UCSD-0791105] | 7.88 | 99.9 | 43.8 | -2.23 | 55.5 | –
CCc1nnsc1C(=O)NC1CCN(CCOc2ccc(Br)cc2)CC1 [UCSD-0818165] | – | – | – | 23.1 | – | –
O=C(c1cnc(OCC(F)(F)F)c(Cl)c1)N1CCc2ccc(O)cc2C1 [UCSD-0809130] | – | – | – | -5.64 | – | –
CC(C)CC(=O)NCc1cccc(OCCN(C)C2CCOCC2)c1 [UCSD-0810838] | > 50 | 39.1 | > 50 | 38.8 | 7.9 | –
CCCNC(=O)CN1CCOC(CC)C1 (stereo not drawn) [UCSD-0814421] | – | – | – | -1.44 | – | –
CC(C)(C)c1nc(CN2CCCC(Cn3cncn3)C2)cs1 (stereo not drawn) [UCSD-0846727] | > 50 | 24.9 | > 50 | 5.83 | -16.6 | –
CS(=O)(=O)CCC(=O)NC1(c2cccc(C(F)(F)F)c2)CCC1 [UCSD-0816629] | – | – | – | -9.29 | – | –
Cc1nc(NCc2nonc2C)cc(C(C)Cn2nc(C)c(C)c2C)n1 (stereo not drawn) [UCSD-0799497] | – | – | – | 87.2 | – | inhibition at 10 µM ([1]; HepG2-A16-CD81, primary screen, 10 uM): 60.2%
N#Cc1nc(COc2ccc3c(c2)OCO3)oc1NC1CCCCC1 [UCSD-0630877] | – | – | – | 1.44 | – | –
Clc1cnccc1NCc1cccc(COC2CCOCC2)c1 [UCSD-0814625] | – | – | – | 43.7 | – | –
CC(C)CC(C)N(C)C(=O)CCn1cccn1 (stereo not drawn) [UCSD-0818578] | – | – | – | -0.31 | – | –
CN(CCc1ccncc1)CCc1nccs1 [UCSD-0805829] | 0.495 | 87.7 | > 50 | 2.05 | -1.84 | –
NC(=O)C1CN(C(=O)Nc2cc(Cl)cc(Cl)c2)CCO1 (stereo not drawn) [UCSD-0586016] | 1.39 | 102 | 16.9 | 11.4 | 92.5 | –
CN1CCN(CCc2ncnn2-c2ccc3c(c2)OCO3)CC1 [UCSD-0825202] | – | – | – | 8.32 | – | –
Cc1n[nH]cc1CNC1CCN(c2cccc(C(F)(F)F)c2)CC1 [UCSD-0814169] | 9.3 | 88.9 | > 50 | -9.01 | 7.17 | –

SMILES | IC50 [1, 5] [µM] | Emax ([1]; HepG2-A16-CD81, 48 h) [%] | IC50 [2] [µM] | inhibition at 2 µM [2] [%] | HepG2 cytotoxicity 12pt dose response: Maximum inhibition (%) [3] [%] | also measured
Cc1cnc2c(c1NCc1cccnc1)c(=O)n(C)c(=O)n2C [UCSD-0787013] | – | – | – | 5.36 | – | –
Cc1nn(C)c(Cl)c1C1CCCN1C(=O)c1ccc(C(N)=O)cn1 (stereo not drawn) [UCSD-0841146] | – | – | – | 26.8 | – | –
OC(c1ccccn1)C1CCN(Cc2cc3n(n2)CCNC3)CC1 (stereo not drawn) [UCSD-0826546] | – | – | – | -15.7 | – | –
O=C(NC1CC1)c1cc(NC(=O)N2CCOCC2)ccc1Cl [UCSD-0811531] | – | – | – | 1.26 | – | –
CNC(=O)c1cccnc1NCc1ccc(Cn2ccnc2)cc1 [UCSD-0807977] | – | – | – | 73.6 | – | –
CN(C)S(=O)(=O)c1csc(C(=O)N2CCSCC2)c1 [UCSD-0836661] | – | – | – | 3.97 | – | –
Cc1ncsc1C(=O)NC1CCN(Cc2ccc(C(F)(F)F)cc2)CC1 [UCSD-0842554] | 14.2 | 87.4 | > 50 | 9.14 | 41.9 | –
Cc1nc(C(=O)N2CC[C@@]3(C[C@@H](NS(C)(=O)=O)CCO3)C2)cs1 [UCSD-0821817] | – | – | – | 25.6 | – | –
CCc1c(C(=O)N2CCN(C)[C@@H]3CS(=O)(=O)C[C@@H]32)[nH]c2ccccc12 [UCSD-0827053] | – | – | – | -0.18 | – | –
COc1ccc(OCCN2CCC(N3CCNC3=O)CC2)cc1 [UCSD-0840477] | 21.2 | 62.9 | > 50 | 38.5 | 42.1 | –
CC(NCc1cccs1)c1ccc(OCc2nccn2C)cc1 (stereo not drawn) [UCSD-0817286] | – | – | – | -3.54 | – | –
Cc1ccc(NC(=O)CNC(C)CN2CCCCC2)c(F)c1 (stereo not drawn) [UCSD-0831198] | – | – | – | -1.94 | – | –
c1nc(N2CCCC(Cn3cncn3)C2)c2sccc2n1 (stereo not drawn) [UCSD-0620442] | – | – | – | 1.85 | – | –
CCOc1ccccc1CNC(=O)NCC(c1cnn(C)c1)N(C)C (stereo not drawn) [UCSD-0816742] | > 50 | 36.1 | > 50 | 13.9 | -5.65 | –
N[C@@H]1CC[C@H](C(=O)NCCn2cc(Cl)cn2)C1 [UCSD-0831589] | – | – | – | -3.85 | – | –
CN(Cc1ccncc1)C1COC2(CCN(Cc3nccn3C)CC2)C1 (stereo not drawn) [UCSD-0822929] | – | – | – | 2.08 | – | –
CC(C)(C)n1ncc2c1CCCC2NCc1ccc2c(c1)CCO2 (stereo not drawn) [UCSD-0811334] | – | – | – | 2.05 | – | –
CC(C)(C)c1ncc(C(=O)NCCSc2ccccn2)c(O)n1 [UCSD-0828026] | – | – | – | 27.1 | – | –

From article PMC7155171, “Probing the Open Global Health Chemical Diversity Library for Multistage-Active Starting Points for Next-Generation Antimalarials” (ACS Infectious Diseases, 2020)
